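How tested: cells in 96-well plates exposed to compound for 48 hours at five concentrations. Here, GI50 denotes the concentration required for 50% inhibition of growth. Definition used: TGI = concentration required for complete inhibition of growth.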
Assays:
Assay in all cases: inhibition of tumour cell growth, NCI panel, 48 h
UACC-62 melanoma = system: UACC-62 melanoma
A498 renal = system: A498 renal
HCC-2998 colon = system: HCC-2998 colon
SNB-75 CNS = system: SNB-75 CNS
CAKI-1 renal = system: CAKI-1 renal
SW-620 colon = system: SW-620 colon
NCI-H460 lung = system: NCI-H460 lung
RXF 393 renal = system: RXF 393 renal
EKVX NSCLC = system: EKVX NSCLC
NCI-H522 lung = system: NCI-H522 lung
UO-31 renal = system: UO-31 renal
SK-OV-3 ovarian = system: SK-OV-3 ovarian
K-562 leukemia = system: K-562 leukemia

SMILES | TGI (UACC-62 melanoma) [µM] | TGI (A498 renal) [µM] | TGI (HCC-2998 colon) [µM] | TGI (SNB-75 CNS) [µM] | TGI (CAKI-1 renal) [µM] | TGI (SW-620 colon) [µM] | TGI (NCI-H460 lung) [µM] | TGI (RXF 393 renal) [µM] | TGI (EKVX NSCLC) [µM] | TGI (NCI-H522 lung) [µM] | TGI (UO-31 renal) [µM] | TGI (SK-OV-3 ovarian) [µM] | TGI (K-562 leukemia) [µM] | GI50 (UACC-62 melanoma) [µM] | GI50 (A498 renal) [µM] | GI50 (CAKI-1 renal) [µM] | GI50 (RXF 393 renal) [µM] | GI50 (NCI-H522 lung) [µM] | GI50 (UO-31 renal) [µM] | GI50 (SK-OV-3 ovarian) [µM]
Clc1nc(Cl)c(Cl)c(Cl)n1 | 35.7 | 34.6 | 35.5 | 33.8 | 35.6 | 20.1 | 51.9 | 35 | 94.4 | 35 | 46.4 | 30.3 | 28 |  |  |  |  |  |  | 
Cc1cc(O)c2c(c1O)C(=O)C13C(=C2O)C(=O)C2C(O)C1C1C(O)C3C(=O)C3=C(O)c4c(O)cc(C)c(O)c4C(=O)C321 (stereo not given) |  | 0.253 | 0.329 | 0.841 | 0.696 | 0.313 |  | 0.295 | 1.84 | 0.543 | 0.214 | 0.319 | 0.56 |  |  |  |  |  |  | 
CCOC(=O)c1sc2nc(SC)nc3c2c1NC(=O)CN3c1cccc(F)c1 | > 100 | 43.1 |  |  | > 100 | > 100 | > 100 | 32 | > 100 | > 100 | 35.1 | 37.4 | 93.3 |  |  |  |  |  |  | 
CCN(CC)CCCOC(=O)/C=C/c1c(C)[nH]c(=O)[nH]c1=O | > 625 | > 412 | > 625 | > 625 | > 625 | > 625 | > 625 | > 99.1 | > 625 | > 625 | > 625 | > 625 | > 625 |  |  |  |  |  |  | 
O=C(NCCCCCCNC(=O)n1cc(F)c(=O)[nH]c1=O)NCCCOCCOCCCNC(=O)C(O)C(O)C(O)C(O)CO (stereo not given) | > 2.5 | > 2.5 | > 2.5 | > 2.5 |  | > 2.5 | > 2.5 | > 2.5 | > 2.5 | > 2.5 | > 2.5 | > 2.5 | > 2.5 |  |  |  |  |  |  | 
C=C1C[C@@H](O)C[C@@]2(C)C[C@@H]3OC(=O)C(=C)[C@@H]3C[C@H]12 | 21 | 36.8 | 14.2 | > 35.5 | 14.1 | 18.1 | > 58.6 | 20.3 |  | 21.6 | 31.2 | > 81.9 | > 100 |  |  |  |  |  |  | 
Cc1c2c(cc3c1[nH]c1ccccc13)C=NCC2 | 21.5 | 40.3 | 46.8 | 39.5 | 31.6 | 27.6 | 27.7 | 16.4 | 78.9 | 41.8 | 59.9 | 97.2 | 20.8 |  |  |  |  |  |  | 
CC(=O)NCCC1CN(C(=O)/C=C\C#C[Si](C)(C)C)c2ccccc21 (stereo not given) | 32.4 | > 100 | 43.2 |  | 33.2 | > 100 | > 100 | 55.3 | 37.5 | 24.3 | > 100 | > 100 | > 100 |  |  |  |  |  |  | 
O=C(Nc1c[nH]c(=O)[nH]c1=O)C(Cl)Cl | > 100 | > 100 | > 100 | > 100 | > 100 | > 100 |  | > 100 | > 100 | > 100 | > 100 | > 100 | > 100 |  |  |  |  |  |  | 
C/C(=N\NS(=O)(=O)c1ccccc1)c1ccccc1 | > 100 | > 100 | > 100 | > 100 | > 100 | > 100 | > 100 | > 100 | > 100 | > 100 | > 100 | > 100 | > 100 |  |  |  |  |  |  | 
O=C1CC(=O)c2c(O)cc(O)c(c2O)-c2c(ccc(O)c2O)C2=CC(=O)c3c(O)cc(O)c(c3O2)-c2c1ccc(O)c2O (tested in a mixture with another compound) | > 50 | > 50 | > 50 | > 50 | > 50 | > 50 | > 50 | > 50 | > 50 |  | > 50 | > 50 | > 50 |  |  |  |  |  |  | 
O=C(CC/C=C(/CS(=O)(=O)c1ccccc1)S(=O)(=O)c1ccccc1)c1ccccc1 | > 100 | > 100 | > 100 | > 100 |  | > 100 | > 100 | > 100 | > 100 | 49.8 | > 100 | > 100 | > 100 |  |  |  |  |  |  | 
CC(=O)OCC1OC(n2cc(F)c(=O)[nH]c2=O)C(N)C(OC(C)=O)C1OC(C)=O (stereo not given) | > 100 | > 100 | > 100 | > 100 | > 100 | > 100 | > 100 | > 100 | > 100 | > 100 | > 100 | > 100 | > 100 |  |  |  |  |  |  | 
Nc1nc2c(c(=O)[nH]1)N(C=O)C(CNc1ccc(C(=O)N[C@@H](CCC(=O)O)C(=O)O)cc1)CN2 (stereo not given in full) | > 125 |  | > 125 | > 125 | > 125 | > 125 | > 125 | > 125 | > 125 | > 125 | > 125 | > 125 | > 31.4 |  |  |  |  |  |  | 
CC(=O)[C@@H]1CCC=C2CC[C@]3(C)[C@@H](CC[C@@H]4[C@@]5(C)CCCNC(C)(C)[C@@H]5CC[C@]43C)[C@H]21 | 3.16 | 3.79 |  |  | 3.22 |  |  | 3.32 |  | 3.5 | 2.89 | 3.37 |  | 1.73 | 2.03 | 1.81 | 1.74 | 1.93 | 1.52 | 1.81

From PubChem BioAssay (NCI)
